This passage reports solubility results from US9732089B2, “Substituted pyrazolo[1,5-a]pyrimidines and their use in the treatment of medical disorders” (Lysosomal Therapeutics Inc., priority 2014, dated 2017).

The nature of the data set: Compound solubility in water. Type of data set: physicochemical.

Converted amounts (≈) assume the structure as drawn.

The term solubility denotes the dissolved amount per volume that the medium holds. A low value points to little dissolved substance.

On to `C#Cc1ccc(NC(=O)c2cnn3c(C)cc(C)nc23)nc1` [III-1], for which the solubility is less than 1.5 µg/mL. Compound `C#Cc1ccc(NC(=O)c2cnn3c(C)cc(C)nc23)cn1` [III-2] returned a solubility of less than 1.5 µg/mL. `Cc1cc(C)n2ncc(C(=O)Nc3ccc(-c4ccccc4)cc3)c2n1` [III-3] returned a solubility of less than 1.5 µg/mL.

As to `COCC#Cc1ccc(NC(=O)c2cnn3c(C)cc(C)nc23)cc1` [III-4], the solubility is less than 1.5 µg/mL. For `Cc1cc(C)n2ncc(C(=O)Nc3ccc(Oc4ccccc4)cc3)c2n1` [III-5] the value was less than 1.5 µg/mL; for `Cc1cc(C)n2ncc(C(=O)Nc3ccc(-n4ccnc4)cc3)c2n1` [III-6], less than 1.5 µg/mL; for `Cc1cc(C)n2ncc(C(=O)Nc3ccc(-c4nccs4)cc3)c2n1` [III-7], less than 1.5 µg/mL.

For the compound `C#Cc1ccc(NC(=O)c2cnn3c(C)cc(C)nc23)c(OC)c1` [III-8], the solubility was less than 1.5 µg/mL. With `Cc1cc(C)n2ncc(C(=O)Nc3ccc(-c4ccon4)cc3)c2n1` [III-9], the solubility is less than 1.5 µg/mL. `Cc1cc(C)n2ncc(C(=O)Nc3ccc(-c4cocn4)cc3)c2n1` [III-10] registered a solubility of less than 1.5 µg/mL.

As to `Cc1cc(C)n2ncc(C(=O)Nc3ccc(-c4ncco4)cc3)c2n1` [III-11], the solubility is less than 1.5 µg/mL.

On to `Cc1cc(C)n2ncc(C(=O)Nc3cc(-c4ccccc4)on3)c2n1` [III-12], for which the solubility was less than 1.5 µg/mL.

In the case of `C#CC1CCC(NC(=O)c2cnn3c(C)cc(C)nc23)CC1` (stereo not drawn) [III-13], the solubility turned out to be 26 µg/mL (≈ 87.7 µM). Turning to `C#C[C@H]1CC[C@H](NC(=O)c2cnn3c(C)cc(C)nc23)CC1` [III-14], the solubility worked out at 17.6 µg/mL (≈ 59.4 µM). `C#C[C@H]1CC[C@@H](NC(=O)c2cnn3c(C)cc(C)nc23)CC1` [III-15] registered a solubility of 8 µg/mL (≈ 27 µM). The figure for `Cc1cc(C)n2ncc(C(=O)Nc3ccc(-c4cnsc4)cc3)c2n1` [III-16] is less than 1.5 µg/mL; for `Cc1cc(C)n2ncc(C(=O)Nc3ccc(-c4cnoc4)cc3)c2n1` [III-17] it is less than 1.5 µg/mL; for `Cc1cc(C)n2ncc(C(=O)Nc3cc(C4(C(F)(F)F)CC4)on3)c2n1` [III-18] it is 2.6 µg/mL (≈ 7.12 µM). For `Cc1cc(C)n2ncc(C(=O)Nc3ccc(-c4cocn4)nc3)c2n1` [III-19] the value was 3 µg/mL (≈ 8.97 µM); for `Cc1cc(C)n2ncc(C(=O)Nc3ccc(-c4cccs4)nc3)c2n1` [III-20], less than 1.5 µg/mL. The figure for `Cc1cc(C)n2ncc(C(=O)Nc3ccc(-c4ccncc4)nc3)c2n1` [III-21] is less than 1.5 µg/mL; for `Cc1cc(C)n2ncc(C(=O)Nc3ccc(-c4ccco4)nc3)c2n1` [III-22] it is less than 1.5 µg/mL. With `Cc1cc(C)n2ncc(C(=O)Nc3ccc(-c4cnn(C)c4)nc3)c2n1` [III-23], the solubility is less than 1.5 µg/mL.

With `Cc1cc(C)n2ncc(CNc3ccc(-c4cocn4)nc3)c2n1` [III-24], the solubility is greater than 64 µg/mL. `Cc1ccn2ncc(CNc3ccc(-c4cocn4)cc3)c2n1` [III-25] returned a solubility of 54 µg/mL (≈ 177 µM).

In the case of `Cc1ccn2ncc(CNc3ccc(-c4ncco4)cc3)c2n1` [III-26], the concentration in solution (solubility) came to 39 µg/mL (≈ 128 µM). Take `Cc1cc(C)n2ncc(C(=O)Nc3ccc(-c4cscn4)cc3)c2n1` [III-27]: the solubility was less than 1.5 µg/mL. Compound `Cc1cc(C)n2ncc(C(=O)Nc3nc4ccccc4[nH]3)c2n1` [III-28] displayed a solubility of less than 1.5 µg/mL. Compound `COCC#Cc1ccc(NCc2cnn3c(C)cc(C)nc23)cc1` [III-29] had a solubility of 5.4 µg/mL (≈ 16.9 µM). On to `Cc1cc(C)n2ncc(C(=O)Nc3ccc(-c4ncc[nH]4)cc3)c2n1` [III-30], for which the solubility is less than 1.5 µg/mL. As for `Cc1cc(C)n2ncc(C(=O)Nc3ccc(-c4cc[nH]n4)cc3)c2n1` [III-31], the solubility stood at 33 µg/mL (≈ 99.3 µM). The figure for `CCCCCOc1ccc(NC(=O)c2cnn3c(C)cc(C)nc23)cc1` [III-32] is less than 1.5 µg/mL. The figure for `C#CCOc1ccc(NC(=O)c2cnn3c(C)cc(C)nc23)cc1` [III-33] is less than 1.5 µg/mL.

For `Cc1cc(C)n2ncc(C(=O)Nc3ccc(CCCC(=O)O)cc3)c2n1` [III-34], the solubility is less than 1.5 µg/mL. The compound `Cc1cc(C)n2ncc(C(=O)Nc3ccc(C(C)O)cc3)c2n1` (stereo not drawn) [III-35] yielded a solubility of 10 µg/mL (≈ 32.2 µM). As to `Cc1cc(C)n2ncc(C(=O)Nc3ccc(CCC(=O)O)cc3)c2n1` [III-36], the concentration in solution (solubility) came to 59.6 µg/mL (≈ 176 µM). Compound `Cc1cc(C)n2ncc(CNc3ccc(-c4cocn4)cc3)c2n1` [III-37] displayed a solubility of 26.1 µg/mL (≈ 81.7 µM). Take `Cc1cc(C)n2ncc(C(=O)Nc3ccc(N=[N+]=[N-])cc3)c2n1` [III-38]: the solubility is less than 1.5 µg/mL. `Cc1cc(C)n2ncc(C(=O)Nc3ccc(-c4cccs4)cc3)c2n1` [III-39] returned a solubility of less than 1.5 µg/mL.

Consider `Cc1cc(C)n2ncc(C(=O)Nc3ccc4[nH]c(C)cc4c3)c2n1` [III-40], for which the concentration in solution (solubility) came to 0.3 µg/mL (≈ 0.939 µM). For `Cc1cc(C)n2ncc(C(=O)Nc3ccc4[nH]ncc4c3)c2n1` [III-41] the value was 0.5 µg/mL (≈ 1.63 µM); for `Cc1cc(C)n2ncc(C(=O)Nc3ccc4cn[nH]c4c3)c2n1` [III-42], 0.4 µg/mL (≈ 1.31 µM). For the compound `Cc1cc(C)n2ncc(C(=O)Nc3ccc4nc(C)oc4c3)c2n1` [III-44], the solubility amounted to 0.3 µg/mL (≈ 0.934 µM). Turning to `Cc1cc(C)n2ncc(C(=O)Nc3ccc4nc(C)[nH]c4c3)c2n1` [III-45], the concentration in solution (solubility) was 1.2 µg/mL (≈ 3.75 µM). In turn, `Cc1cc(C)n2ncc(C(=O)Nc3ccc4c(c3)CCNC4)c2n1` [III-46] returned a solubility of 33.4 µg/mL (≈ 104 µM).

Compound `Cc1cc(C)n2ncc(C(=O)Nc3ccc4oncc4c3)c2n1` [III-47] came in with a solubility of 0.9 µg/mL (≈ 2.93 µM). In turn, `Cc1cc(C)n2ncc(C(=O)Nc3ccc4oc(-c5ccncc5)nc4c3)c2n1` [III-48] showed a solubility of 0.3 µg/mL (≈ 0.78 µM). In turn, `Cc1cc(C)n2ncc(C(=O)Nc3ccc4[nH]c(-c5ccco5)nc4c3)c2n1` [III-49] came in with a solubility of 0.4 µg/mL (≈ 1.07 µM). For `Cc1cc(C)n2ncc(C(=O)Nc3ccc4nc(C)sc4c3)c2n1` [III-50] the value was 2.3 µg/mL (≈ 6.82 µM); for `Cc1cc(C)n2ncc(C(=O)Nc3ccc(Cl)c(COc4cccnc4)c3)c2n1` [III-51], 0.06 µg/mL (≈ 0.147 µM).

In turn, `Cc1cc(C)n2ncc(C(=O)Nc3ccc(C)c(-c4ncco4)c3)c2n1` [III-52] showed a solubility of 0.05 µg/mL (≈ 0.144 µM). `Cc1cc(C)n2ncc(C(=O)Nc3ccc(Cl)c(-c4cnco4)c3)c2n1` [III-53]: the solubility is less than 0.05 µg/mL. Take `Cc1cc(C)n2ncc(C(=O)Nc3ccc(-c4cnn(C)c4)cc3)c2n1` [III-54]: the solubility was 2.1 µg/mL (≈ 6.06 µM). For `Cc1cc(C)n2ncc(C(=O)Nc3ccc(-c4ccco4)cc3)c2n1` [III-55] the value was less than 1.5 µg/mL; for `Cc1cc(C)n2ncc(C(=O)Nc3ccc(-c4ccncc4)cc3)c2n1` [III-56], less than 1.5 µg/mL.

For `Cc1cc(C)n2ncc(C(=O)NC3CCCc4ccccc43)c2n1` (stereo not drawn) [III-58], the concentration in solution (solubility) came to 2.6 µg/mL (≈ 8.11 µM). `CCCCCO[C@H]1CC[C@H](NC(=O)c2cnn3c(C)cc(C)nc23)CC1` [III-59] returned a solubility of 7.1 µg/mL (≈ 19.8 µM). Consider `Cc1cc(C)n2ncc(C(=O)N[C@@H](C)c3ccccc3F)c2n1` [III-60], for which the solubility is 7.2 µg/mL (≈ 23.1 µM). With `COc1ccccc1[C@H](C)NC(=O)c1cnn2c(C)cc(C)nc12` [III-61], the solubility is 1.4 µg/mL (≈ 4.32 µM). For the compound `COc1ccccc1[C@@H](C)NC(=O)c1cnn2c(C)cc(C)nc12` [III-62], the solubility worked out at 2.5 µg/mL (≈ 7.71 µM). Compound `Cc1cc(C)n2ncc(C(=O)N[C@@H](C)c3cccc(Cl)c3)c2n1` [III-63] returned a solubility of 11.9 µg/mL (≈ 36.2 µM). In the case of `Cc1cc(C)n2ncc(C(=O)N[C@H](C)c3ccc(Cl)cc3)c2n1` [III-64], the concentration in solution (solubility) was 0.7 µg/mL (≈ 2.13 µM).

With `Cc1cc(C)n2ncc(C(=O)N[C@H](C)c3ccc(F)cc3)c2n1` [III-65], the solubility was 27.6 µg/mL (≈ 88.4 µM). For `Cc1cc(C)n2ncc(C(=O)NC(C)C3CCC(F)(F)CC3)c2n1` (stereo not drawn) [III-66], the concentration in solution (solubility) was 20.6 µg/mL (≈ 61.2 µM). Regarding `Cc1cc(C)n2ncc(C(=O)NC(C)(C)c3ccc(Cl)cc3)c2n1` [III-67], the concentration in solution (solubility) was 2.2 µg/mL (≈ 6.42 µM). Compound `Cc1cc(Cl)n2ncc(C(=O)NC(C)(C)c3ccc(Cl)cc3)c2n1` [III-68] came in with a solubility of 2.1 µg/mL (≈ 5.78 µM). As to `Cc1cc(Cl)nc2c(C(=O)NC(C)(C)c3ccc(Cl)cc3)cnn12` [III-69], the concentration in solution (solubility) was 5.1 µg/mL (≈ 14 µM). In turn, `Cc1cc(C)n2ncc(C(=O)NC(C)(C)c3ccc(F)cc3F)c2n1` [III-70] returned a solubility of 2 µg/mL (≈ 5.81 µM). Compound `CO[C@H]1CC[C@H](C(C)(C)NC(=O)c2cnn3c(C)cc(C)nc23)CC1` [III-71] yielded a solubility of 21.4 µg/mL (≈ 62.1 µM). The figure for `CO[C@H]1CC[C@@H](C(C)(C)NC(=O)c2cnn3c(C)cc(C)nc23)CC1` [III-72] is 15.1 µg/mL (≈ 43.8 µM); for `Cc1cc(C)n2ncc(C(=O)Nc3ccc4c(c3)C(C3=NCCN3)CCC4)c2n1` (stereo not drawn) [III-73] it is 34 µg/mL (≈ 87.5 µM). For `C#Cc1ccc(NCc2cnn3c(C)cc(C)cc23)cc1` [III-74], the concentration in solution (solubility) came to 0.2 µg/mL (≈ 0.726 µM).

`Cc1cc(C)n2ncc(C(=O)Nc3ccc(Cl)c(C(C)Oc4cccnc4)c3)c2n1` (stereo not drawn) [III-75] displayed a solubility of 0.1 µg/mL (≈ 0.237 µM).

`C#Cc1ccc(NC(=O)c2cnn3c(C)cc(NC)nc23)cc1` [III-77] registered a solubility of 4.2 µg/mL (≈ 13.8 µM). With `C#Cc1ccc(NC(=O)c2cnn3c(NC)cc(C)nc23)cc1` [III-78], the solubility is less than 1.5 µg/mL. For `Cc1cc(C)n2ncc(C(=O)NC3CCc4ccccc43)c2n1` (stereo not drawn) [III-79] the value was 0.8 µg/mL (≈ 2.61 µM); for `C#Cc1ccc(NC(=O)c2cnn3c(C)cc(C)nc23)cc1` [IV-1], less than 1.5 µg/mL.

Regarding `Cc1cc(C)n2ncc(C(=O)Nc3ccc(C#CCN(C)C)cc3)c2n1` [IV-2], the solubility is 5.1 µg/mL (≈ 14.7 µM). For `Cc1cc(C)n2ncc(C(=O)Nc3ccc(N4CCCCC4)cc3)c2n1` [IV-3] the value was less than 1.5 µg/mL; for `Cc1cc(C)n2ncc(C(=O)Nc3ccc4c(c3)OCO4)c2n1` [IV-4], 0.6 µg/mL (≈ 1.93 µM); for `Cc1cc(C)n2ncc(C(=O)Nc3ccc4c(c3)CCC4)c2n1` [IV-5], 0.5 µg/mL (≈ 1.63 µM).
